Test results from PubChem BioAssay (NCI).
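Values below derive from 48-hour exposures of cells grown in 96-well plates, with endpoints linearly interpolated between the two concentrations bracketing the appropriate inhibition level. TGI: total growth inhibition.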

Tests used:
Test in all cases: NCI tumour cell line growth inhibition, 48 h
SN12K1 renal = test system: SN12K1 renal
MOLT-4 leukemia = test system: MOLT-4 leukemia
RPMI-8226 leukemia = test system: RPMI-8226 leukemia
SW-620 colon = test system: SW-620 colon
K-562 leukemia = test system: K-562 leukemia
EKVX NSCLC = test system: EKVX NSCLC
LOX IMVI melanoma = test system: LOX IMVI melanoma
KM12 colon = test system: KM12 colon
NCI-H226 lung = test system: NCI-H226 lung
SNB-78 CNS = test system: SNB-78 CNS
SNB-75 CNS = test system: SNB-75 CNS
NCI-H460 lung = test system: NCI-H460 lung
SF-268 CNS = test system: SF-268 CNS
SK-MEL-5 melanoma = test system: SK-MEL-5 melanoma
UO-31 renal = test system: UO-31 renal
SK-MEL-28 melanoma = test system: SK-MEL-28 melanoma
UACC-257 melanoma = test system: UACC-257 melanoma
SN12C renal = test system: SN12C renal
HCC-2998 colon = test system: HCC-2998 colon
UACC-62 melanoma = test system: UACC-62 melanoma
HCT-15 colon = test system: HCT-15 colon
A498 renal = test system: A498 renal
OVCAR-3 ovarian = test system: OVCAR-3 ovarian
SF-539 CNS = test system: SF-539 CNS
MALME-3M melanoma = test system: MALME-3M melanoma
U251 CNS = test system: U251 CNS
OVCAR-4 ovarian = test system: OVCAR-4 ovarian
OVCAR-5 ovarian = test system: OVCAR-5 ovarian
SNB-19 CNS = test system: SNB-19 CNS
HOP-18 NSCLC = test system: HOP-18 NSCLC
SK-OV-3 ovarian = test system: SK-OV-3 ovarian
NCI/ADR-RES ovarian = test system: NCI/ADR-RES ovarian
IGROV1 ovarian = test system: IGROV1 ovarian
SK-MEL-2 melanoma = test system: SK-MEL-2 melanoma
KM20L2 colon = test system: KM20L2 colon
COLO 205 colon = test system: COLO 205 colon
HOP-92 NSCLC = test system: HOP-92 NSCLC
DMS 114 small cell lung = test system: DMS 114 small cell lung
DLD-1 colon = test system: DLD-1 colon
CCRF-CEM leukemia = test system: CCRF-CEM leukemia
A549 NSCLC = test system: A549 NSCLC
M19-MEL melanoma = test system: M19-MEL melanoma
SF-295 CNS = test system: SF-295 CNS
HT29 colon = test system: HT29 colon
P388/ADR leukemia = test system: P388/ADR leukemia
HL-60(TB) leukemia = test system: HL-60(TB) leukemia
XF 498 CNS = test system: XF 498 CNS
CAKI-1 renal = test system: CAKI-1 renal
P388 leukemia = test system: P388 leukemia
NCI-H522 lung = test system: NCI-H522 lung
HCT-116 colon = test system: HCT-116 colon
RXF 393 renal = test system: RXF 393 renal
HOP-62 NSCLC = test system: HOP-62 NSCLC
MCF7 breast = test system: MCF7 breast
NCI-H23 lung = test system: NCI-H23 lung
DMS 273 small cell lung = test system: DMS 273 small cell lung
OVCAR-8 ovarian = test system: OVCAR-8 ovarian

CC[C@@]1(O)C[C@H](OC2CC(N(C)C)C(OC3CC(O)C(OC4CC(O)C(O)C(C)O4)C(C)O3)C(C)O2)c2c(cc3c(c2O)C(=O)c2c(O)ccc(O)c2C3=O)[C@H]1C(=O)OC (stereo not given in full)
TGI (SN12K1 renal): 0.0678 µM
TGI (MOLT-4 leukemia): 0.103 µM
TGI (RPMI-8226 leukemia): 0.385 µM
TGI (SW-620 colon): 1.94 µM
TGI (K-562 leukemia): 1.7 µM
TGI (EKVX NSCLC): 0.982 µM
TGI (LOX IMVI melanoma): 3.67 µM
TGI (KM12 colon): 3.03 µM
TGI (NCI-H226 lung): 0.203 µM
TGI (SNB-78 CNS): 2.1 µM
TGI (SNB-75 CNS): 0.39 µM
TGI (NCI-H460 lung): 0.103 µM
TGI (SF-268 CNS): 1.49 µM
TGI (SK-MEL-5 melanoma): 0.135 µM
TGI (UO-31 renal): 1.22 µM
TGI (SK-MEL-28 melanoma): 0.293 µM
TGI (UACC-257 melanoma): 0.184 µM
TGI (SN12C renal): 2.09 µM
TGI (HCC-2998 colon): 0.662 µM
TGI (UACC-62 melanoma): 0.106 µM
TGI (HCT-15 colon): 2.66 µM
TGI (A498 renal): 0.0891 µM
TGI (OVCAR-3 ovarian): 0.347 µM
TGI (SF-539 CNS): 0.341 µM
TGI (MALME-3M melanoma): 0.196 µM
TGI (U251 CNS): 3.18 µM
TGI (OVCAR-4 ovarian): 0.564 µM
TGI (OVCAR-5 ovarian): 3.1 µM
TGI (SNB-19 CNS): 4.3 µM
TGI (HOP-18 NSCLC): 1.32 µM
TGI (SK-OV-3 ovarian): 3.04 µM
TGI (NCI/ADR-RES ovarian): 10.2 µM
TGI (IGROV1 ovarian): 3.84 µM
TGI (SK-MEL-2 melanoma): 0.124 µM
TGI (KM20L2 colon): 2.62 µM
TGI (COLO 205 colon): 0.39 µM
TGI (HOP-92 NSCLC): 0.867 µM
TGI (DMS 114 small cell lung): 0.959 µM
TGI (DLD-1 colon): 3.59 µM
TGI (CCRF-CEM leukemia): 1.81 µM
TGI (A549 NSCLC): 19.8 µM
TGI (M19-MEL melanoma): 0.21 µM
TGI (SF-295 CNS): 0.654 µM
TGI (HT29 colon): 0.871 µM
TGI (P388/ADR leukemia): 2.23 µM
TGI (HL-60(TB) leukemia): 1.37 µM
TGI (XF 498 CNS): 0.225 µM
TGI (CAKI-1 renal): 0.142 µM
TGI (P388 leukemia): 0.0892 µM
TGI (NCI-H522 lung): 0.153 µM
TGI (HCT-116 colon): 0.118 µM
TGI (RXF 393 renal): 0.112 µM
TGI (HOP-62 NSCLC): 0.5 µM
TGI (MCF7 breast): 0.959 µM
TGI (NCI-H23 lung): 0.314 µM
TGI (DMS 273 small cell lung): 0.482 µM
TGI (OVCAR-8 ovarian): 1.15 µM

CN(C)CCNC(=O)c1ccc(Cl)c2ccc(-c3ccccc3)nc12
TGI (SN12K1 renal): 9.69 µM
TGI (MOLT-4 leukemia): 5.72 µM
TGI (RPMI-8226 leukemia): 7.83 µM
TGI (SW-620 colon): 14.2 µM
TGI (K-562 leukemia): 6.15 µM
TGI (KM12 colon): 24.2 µM
TGI (NCI-H226 lung): 7.3 µM
TGI (SNB-78 CNS): 20.5 µM
TGI (SNB-75 CNS): 12.3 µM
TGI (NCI-H460 lung): 8.04 µM
TGI (SF-268 CNS): 17.5 µM
TGI (SK-MEL-5 melanoma): 4.82 µM
TGI (UO-31 renal): 5.21 µM
TGI (SK-MEL-28 melanoma): 14.6 µM
TGI (UACC-257 melanoma): 14.2 µM
TGI (SN12C renal): 15.5 µM
TGI (HCC-2998 colon): 16.6 µM
TGI (UACC-62 melanoma): 7.83 µM
TGI (HCT-15 colon): 14.5 µM
TGI (A498 renal): 12.8 µM
TGI (OVCAR-3 ovarian): 19.4 µM
TGI (SF-539 CNS): 12.8 µM
TGI (MALME-3M melanoma): 10.6 µM
TGI (U251 CNS): 12.7 µM
TGI (OVCAR-4 ovarian): 14 µM
TGI (OVCAR-5 ovarian): 13.3 µM
TGI (SNB-19 CNS): 17.1 µM
TGI (HOP-18 NSCLC): 13.5 µM
TGI (SK-OV-3 ovarian): 17.4 µM
TGI (NCI/ADR-RES ovarian): 12.1 µM
TGI (IGROV1 ovarian): 14.1 µM
TGI (SK-MEL-2 melanoma): 20.1 µM
TGI (KM20L2 colon): 12.9 µM
TGI (COLO 205 colon): 4.85 µM
TGI (HOP-92 NSCLC): 7.52 µM
TGI (DLD-1 colon): 12.7 µM
TGI (CCRF-CEM leukemia): 10.8 µM
TGI (A549 NSCLC): 13 µM
TGI (M19-MEL melanoma): 13.4 µM
TGI (SF-295 CNS): 16.5 µM
TGI (HT29 colon): 11.9 µM
TGI (P388/ADR leukemia): 5.17 µM
TGI (HL-60(TB) leukemia): 7.65 µM
TGI (XF 498 CNS): 11 µM
TGI (CAKI-1 renal): 12.9 µM
TGI (NCI-H522 lung): 14.9 µM
TGI (HCT-116 colon): 11.3 µM
TGI (RXF 393 renal): 19 µM
TGI (HOP-62 NSCLC): 11 µM
TGI (MCF7 breast): 16.8 µM
TGI (NCI-H23 lung): 16.6 µM
TGI (DMS 273 small cell lung): 10.9 µM
TGI (OVCAR-8 ovarian): 12.3 µM
